Assays:
Williams = assay: Seed soak test with Compound 8; assay type: in vivo, soybean; details: seeds soaked 16 hours in 2 ppm solution, within two weeks of planting
Procedure: (§1) The original W4-4 M2 plant was allowed to self pollinate, mature, and produced a family of M3 seeds. An M3 progeny test was then conducted to determine if the new resistance phenotype was heritable and if the M3 family was true-breeding or segregating for the new resistance trait. The M3 progeny of W4-4 were screened for resistance with the same seed soak technique used to select the original W4-4 M2 plant. Twenty seeds each of the W4-4 M3 family, W20 line, and Williams line were soaked for 16 hours in a solution of 2 ppm of Compound 8. Twenty additional seeds of Williams were soaked for 16 hours in plain tap water as a control treatment. Treated seeds were then washed for two minutes in running water. Each seed was then planted in a separate pot for ease of observation.

W4-4 M3 family = assay: Seed soak test with Compound 8; assay type: in vivo, soybean; details: W4-4 M3, seeds soaked 16 hours in 2 ppm solution, within two weeks of planting
Procedure: as §1

ALS of W4-6 = assay: In vitro ALS activity of leaf tissue in the presence of Compounds 8 and 9; assay type: biochemical, soybean; details: W4-6, 100 ppb
From the text: (§2) At approximately 1 month after transplantation, some of the selections appeared much healthier than others. For example, W4-4, W4-6, W6-1, W6-2, W6-4, W23-10, and W23-11 recovered very well from the seed soak treatment with Compound 8. These plants were suspected of having a higher level of ALS resistance to Compound 8 than did the parental material from which they were derived. The applicant was also interested to see if any of these selections were cross resistant to an imidazolinone herbicide such as Compound 9. To test this hypothesis, leaf tissue of the one-month-old M2 plants was sampled and assayed in vitro for ALS activity in the presence of Compound 8 and Compound 9. The ALS assay procedure was essentially identical to the previously described ALS assay except that the herbicide concentrations tested were 100 ppb Compound 8 and 10 ppm Compound 9. Williams and mutant W20 soybean plants were also assayed as control genotypes for comparison. Williams contains no genes conferring the ALS-based sulfonylurea resistance while W20 is homozygous for a single mutation conferring ALS-based sulfonylurea resistance.
(§3) Acetolactate synthase (ALS) was extracted from leaves of soybean plants growing vegetatively. The leaves were homogenized in 4 volumes of buffer containing 100 mM hepes (pH 7.5), 1 mM sodium pyruvate, 0.5 mM magnesium chloride, 0.5 mM thiamine pyrophosphate, […], 10% glycerol, 5% PVPP, and 0.2% mercaptoethanol. The homogenate was filtered through cheese cloth and centrifuged at 20,000 g for 20 min. ALS was precipitated from the supernatant with ammonium sulfate. The enzyme was collected between 20 and 60% saturation by centrifugation at 20,000 g for 20 min. The pellet was resuspended in buffer containing 100 mM Hepes, 1 mM sodium pyruvate, and 0.5 mM magnesium chloride, and desalted on PD-10 columns (Pharmacia) equilibrated with the same buffer. ALS assays were carried out in a final volume of 0.5 mL at 30° C. The final reaction mixture contained 100 mM Hepes (pH 7.5), 1 mM magnesium chloride, 60 mM sodium pyruvate, 0.4 mM thiaminepyrophosphate, […], and various concentrations of chlorsulfuron. The assays were initiated with the addition of enzyme ([…]) and terminated with the addition of […] of 6N sulfuric acid. The acidified reaction mixture was heated to 60° C. for 15 min, after which 0.5 mL of 0.5% (W/V) creatine and 0.5 mL of 5% (W/V) napthol (freshly prepared in 2.5 N sodium hydroxide) were added. The reaction mixtures were heated for an additional 15 min at 60° C., and the absorbance was read at 525 nm. Data are expressed in terms of % control (minus Compound 1) activity and are the average of two replications. Fisher's least significant difference (LSD) value (at the 95% level of confidence) was calculated for each Compound 1 concentration to determine the significance of genotype mean differences.

ALS of W6-2 = assay: as above; assay type: biochemical, soybean; details: W6-2, 100 ppb
From the text: as §2, §3

ALS of W4-4 = assay: as above; assay type: biochemical, soybean; details: W4-4, 100 ppb
From the text: as §2, §3

ALS of Williams = assay: as above; assay type: biochemical, soybean; details: 100 ppb
From the text: as §2, §3

ALS of W4-5 = assay: as above; assay type: biochemical, soybean; details: W4-5, 100 ppb
From the text: as §2, §3

ALS of W23-10 = assay: as above; assay type: biochemical, soybean; details: W23-10, 100 ppb
From the text: as §2, §3

ALS of W23-11 = assay: as above; assay type: biochemical, soybean; details: W23-11, 100 ppb
From the text: as §2, §3

ALS of W6-4 = assay: as above; assay type: biochemical, soybean; details: W6-4, 100 ppb
From the text: as §2, §3

ALS of W20 = assay: as above; assay type: biochemical, soybean; details: W20, 100 ppb
From the text: as §2, §3

ALS of W6-1 = assay: as above; assay type: biochemical, soybean; details: W6-1, 100 ppb
From the text: as §2, §3

Compound: COC(=O)c1cccnc1S(=O)(=O)NC(=O)Nc1nc(OC)cc(OC)n1 [Compound 8, Methyl 2-[[[[(4,6-dimethoxy-2-pyrimidinyl)amino]carbonyl]amino]sulfonyl]-3-pyridinecarboxylate]
- seedling development after seed soak (Williams): had not started to form true leaves
- seedling development after seed soak (W4-4 M3 family): had developed both unifoliolate and trifoliolate leaves
- uninhibited ALS activity as % of control (ALS of W4-6): 4.0 % of control
- uninhibited ALS activity as % of control (ALS of W6-2): 9.7 % of control
- uninhibited ALS activity as % of control (ALS of W4-4): 37.6 % of control
- uninhibited ALS activity as % of control (ALS of Williams): -0.3 % of control
- uninhibited ALS activity as % of control (ALS of W4-5): 7.1 % of control
- uninhibited ALS activity as % of control (ALS of W23-10): 7.9 % of control
- uninhibited ALS activity as % of control (ALS of W23-11): 3.8 % of control
- uninhibited ALS activity as % of control (ALS of W6-4): 10.5 % of control
- uninhibited ALS activity as % of control (ALS of W20): 10.7 % of control
- uninhibited ALS activity as % of control (ALS of W6-1): 8.5 % of control
